Data reported in PMC10436550, “Subacute toxicity evaluations of LPM3480392 in rats, a full µ-opioid receptor biased agonist” (Frontiers in Pharmacology, 2023).

System: Sprague Dawley (SD) rats
Assay: Organ weight and ratios, 4-week subacute toxicity study
Type: in vivo, rat
Conditions: male rats
Description: Complete gross necropsies were conducted on all surviving animals at the end of treatment (the day after the last dosing) and recovery periods. The following selected organs were weighed and evaluated in terms of organ/body or organ/brain weight ratios: brain, kidneys, adrenals, testes, ovaries, uterus, epididymides, thymus, spleen, heart and liver. Paired organs were weighed together. Organ-to-body weight ratio = Organ weight(g)/Body weight(g) × 100%, and Organ-to-brain weight ratio = Organ weight(g)/Brain weight(g) × 100%.

[1] = 0.6 mg/kg/day, End of recovery phase
[2] = 1.2 mg/kg/day, End of dosing phase
[3] = 1.2 mg/kg/day, End of recovery phase
[4] = 2.4 mg/kg/day, End of dosing phase
[5] = 2.4 mg/kg/day, End of recovery phase

Fc1ccc([C@]2(CCNCc3cccc(Cl)c3)CCO[C@]3(CCOC3)C2)nc1 [LPM3480392]
Organ weight, Heart [1]: 1.431 ± 0.112 g
Organ weight, Liver [1]: 9.943 ± 1.685 g
Organ weight, Spleen [1]: 0.774 ± 0.108 g
Organ weight, Thymus [1]: 0.470 ± 0.076 g
Organ-to-body weight ratio, Adrenal gland [1]: 0.013 ± 0.002%
Organ-to-body weight ratio, Brain [1]: 0.534 ± 0.040%
Organ-to-body weight ratio, Epididymis [1]: 0.338 ± 0.036%
Organ-to-body weight ratio, Heart [1]: 0.337 ± 0.020%
Organ-to-body weight ratio, Liver [1]: 2.327 ± 0.250%
Organ-to-body weight ratio, Spleen [1]: 0.182 ± 0.018%
Organ-to-body weight ratio, Thymus [1]: 0.110 ± 0.016%
Organ-to-brain weight ratio, Adrenal gland [1]: 2.52 ± 0.37%
Organ-to-brain weight ratio, Epididymis [1]: 63.42 ± 6.91%
Organ-to-brain weight ratio, Heart [1]: 63.29 ± 4.73%
Organ-to-brain weight ratio, Liver [1]: 441.01 ± 85.94%
Organ-to-brain weight ratio, Spleen [1]: 34.27 ± 5.33%
Organ-to-brain weight ratio, Thymus [1]: 20.83 ± 3.66%
Terminal BW [1]: 425.2 ± 26.4 g
Organ weight, Adrenal gland [2]: 0.052 ± 0.007 g
Organ weight, Brain [2]: 2.015 ± 0.137 g
Organ weight, Epididymis [2]: 1.020 ± 0.040 g
Organ weight, Heart [2]: 1.199 ± 0.140 g
Organ weight, Liver [2]: 7.643 ± 0.801 g
Organ weight, Spleen [2]: 0.703 ± 0.103 g
Organ weight, Thymus [2]: 0.425 ± 0.115 g
Organ-to-body weight ratio, Adrenal gland [2]: 0.017 ± 0.002%
Organ-to-body weight ratio, Brain [2]: 0.655 ± 0.040%
Organ-to-body weight ratio, Epididymis [2]: 0.332 ± 0.030%
Organ-to-body weight ratio, Heart [2]: 0.388 ± 0.025 %
Organ-to-body weight ratio, Liver [2]: 2.473 ± 0.100%
Organ-to-body weight ratio, Spleen [2]: 0.227 ± 0.026%
Organ-to-body weight ratio, Thymus [2]: 0.136 ± 0.028%
Organ-to-brain weight ratio, Adrenal gland [2]: 2.59 ± 0.37%
Organ-to-brain weight ratio, Epididymis [2]: 50.88 ± 4.79%
Organ-to-brain weight ratio, Heart [2]: 59.48 ± 5.54%
Organ-to-brain weight ratio, Liver [2]: 378.95 ± 25.83%
Organ-to-brain weight ratio, Spleen [2]: 35.01 ± 5.62%
Organ-to-brain weight ratio, Thymus [2]: 20.87 ± 4.42%
Terminal BW [2]: 308.5 ± 22.5 g
Organ weight, Adrenal gland [3]: 0.060 ± 0.010 g
Organ weight, Brain [3]: 2.177 ± 0.033 g
Organ weight, Epididymis [3]: 1.351 ± 0.094 g
Organ weight, Heart [3]: 1.483 ± 0.081 g
Organ weight, Liver [3]: 10.423 ± 1.077 g
Organ weight, Spleen [3]: 0.814 ± 0.089 g
Organ weight, Thymus [3]: 0.393 ± 0.042 g
Organ-to-body weight ratio, Adrenal gland [3]: 0.014 ± 0.003%
Organ-to-body weight ratio, Brain [3]: 0.514 ± 0.031%
Organ-to-body weight ratio, Epididymis [3]: 0.318 ± 0.010%
Organ-to-body weight ratio, Heart [3]: 0.349 ± 0.017%
Organ-to-body weight ratio, Liver [3]: 2.451 ± 0.149%
Organ-to-body weight ratio, Spleen [3]: 0.192 ± 0.022%
Organ-to-body weight ratio, Thymus [3]: 0.093 ± 0.013%
Organ-to-brain weight ratio, Adrenal gland [3]: 2.74 ± 0.50%
Organ-to-brain weight ratio, Epididymis [3]: 62.05 ± 4.34%
Organ-to-brain weight ratio, Heart [3]: 68.08 ± 3.40%
Organ-to-brain weight ratio, Liver [3]: 478.76 ± 49.84%
Organ-to-brain weight ratio, Spleen [3]: 37.41 ± 4.09%
Organ-to-brain weight ratio, Thymus [3]: 18.03 ± 1.83%
Terminal BW [3]: 424.6 ± 23.0 g
Organ weight, Adrenal gland [4]: 0.052 ± 0.004 g
Organ weight, Brain [4]: 2.031 ± 0.066 g
Organ weight, Epididymis [4]: 0.904 ± 0.104 g
Organ weight, Heart [4]: 1.172 ± 0.071 g
Organ weight, Liver [4]: 7.348 ± 0.497 g
Organ weight, Spleen [4]: 0.686 ± 0.129 g
Organ weight, Thymus [4]: 0.394 ± 0.075 g
Organ-to-body weight ratio, Adrenal gland [4]: 0.018 ± 0.002%
Organ-to-body weight ratio, Brain [4]: 0.689 ± 0.061%
Organ-to-body weight ratio, Epididymis [4]: 0.305 ± 0.028%
Organ-to-body weight ratio, Heart [4]: 0.397 ± 0.037 %
Organ-to-body weight ratio, Liver [4]: 2.487 ± 0.195%
Organ-to-body weight ratio, Spleen [4]: 0.231 ± 0.033%
Organ-to-body weight ratio, Thymus [4]: 0.132 ± 0.019%
Organ-to-brain weight ratio, Adrenal gland [4]: 2.59 ± 0.24%
Organ-to-brain weight ratio, Epididymis [4]: 44.58 ± 5.64 %
Organ-to-brain weight ratio, Heart [4]: 57.77 ± 3.83%
Organ-to-brain weight ratio, Liver [4]: 361.66 ± 16.84 %
Organ-to-brain weight ratio, Spleen [4]: 33.71 ± 5.76%
Organ-to-brain weight ratio, Thymus [4]: 19.36 ± 3.42%
Terminal BW [4]: 296.6 ± 24.2 g
Organ weight, Adrenal gland [5]: 0.055 ± 0.009 g
Organ weight, Brain [5]: 2.185 ± 0.147 g
Organ weight, Epididymis [5]: 1.239 ± 0.114 g
Organ weight, Heart [5]: 1.360 ± 0.262 g
Organ weight, Liver [5]: 9.451 ± 1.196 g
Organ weight, Spleen [5]: 0.775 ± 0.172 g
Organ weight, Thymus [5]: 0.386 ± 0.038 g
Organ-to-body weight ratio, Adrenal gland [5]: 0.014 ± 0.002%
Organ-to-body weight ratio, Brain [5]: 0.559 ± 0.076%
Organ-to-body weight ratio, Epididymis [5]: 0.315 ± 0.026%
Organ-to-body weight ratio, Heart [5]: 0.342 ± 0.024%
Organ-to-body weight ratio, Liver [5]: 2.391 ± 0.064%
Organ-to-body weight ratio, Spleen [5]: 0.194 ± 0.023%
Organ-to-body weight ratio, Thymus [5]: 0.099 ± 0.013%
Organ-to-brain weight ratio, Adrenal gland [5]: 2.55 ± 0.51%
Organ-to-brain weight ratio, Epididymis [5]: 56.82 ± 5.54%
Organ-to-brain weight ratio, Heart [5]: 62.11 ± 10.37%
Organ-to-brain weight ratio, Liver [5]: 432.91 ± 49.50%
Organ-to-brain weight ratio, Spleen [5]: 35.31 ± 6.72%
Organ-to-brain weight ratio, Thymus [5]: 17.77 ± 2.29%
Terminal BW [5]: 395.7 ± 53.7 g
